Laboratory results taken from a melting point compilation (Tetko et al.; mined from patent text by program, amines drawn as free bases though some values may be those of a salt).

Row | SMILES | melting point
1 | Cc1cccc(-c2cn(C)cc(-c3cccc(C(F)(F)F)c3)c2=S)c1 | 193 to 196 °C
2 | C=C[C@@H]1O[C@](/C=C/C2CC2)(C(F)(F)F)c2cc(Cl)ccc2NC1=O (relative stereo) | 166 °C
3 | CCOC(CC)=NS(=O)(=O)c1nc(-c2ccccc2)ns1 | 98 to 100 °C
4 | O=S(=O)(Nc1ccc2c(OCc3csc(-c4ccccc4)n3)cccc2c1)C(F)(F)F | 89 to 99 °C
5 | Nc1ncnc2c1ncn2Cc1nc2cc(F)ccc2c(=O)n1-c1ccccc1Cl | 217 °C
6 | CN(c1ccc2ccccc2c1)S(=O)(=O)C(Cc1ccccc1)C(=O)NC(Cc1ccc(C#N)cc1)C(=O)N1CCCC1 (stereo not drawn) | 186 °C
7 | CN(C)Cc1nnc2n1-c1ccc(Cl)cc1C(c1ccccc1Cl)=NC2 | 199 to 201 °C
8 | O=C(SCCC(=O)N1C(c2ccccc2O)CC[C@H]1C(=O)N[C@@H](Cc1ccccc1)C(=O)O)c1ccccc1 (stereo partly drawn) | 72 to 102 °C
9 | N=C(N)c1ccc2cc(OC(=O)C3CCC(CNC(=O)OCc4ccccc4)CC3)ccc2c1 (stereo not drawn) | 167 to 170 °C
10 | C#CC12CCCN(CC1)C2 (stereo not drawn) | 41 to 42 °C
11 | Cc1c(-c2ccc(F)cc2)nnn1CCC#Cc1ccccn1 | 130 to 131 °C
12 | CCCCCCCCCC(O)CNCCCNCC(O)CCCCCCCCC (stereo not drawn) | 94 to 103 °C
13 | CC(C(=O)c1ccc(F)cc1)N1CCC(O)(Cc2ccccc2)CC1 (stereo not drawn) | 120 °C
14 | Clc1ccc(-c2cc(-c3ccccc3)c(-c3ccccc3)s2)cc1Cl | 101 to 103 °C
15 | CCC(=O)NCCCSc1ccncc1 | 50 to 51 °C
16 | CN(C)[C@@H]1Cc2cccc(O)c2C[C@H]1O (relative stereo) | 168 to 170 °C
17 | CC(C)[C@H](NC(=O)CNC(=O)OCC1c2ccccc2-c2ccccc21)C(=O)O | 69 to 71 °C
18 | C/C(C=O)=C\COc1cccc2ccccc12 | 81.5 to 82.5 °C
19 | OC(Cn1cncn1)(c1ccc(Cl)cc1)C1(n2cnc(Cl)n2)CC1 (stereo not drawn) | 156 °C

Row | SMILES | melting point
20 | S=C(NC1CC1)N1CCc2[nH]cnc2C1 | 185 °C
21 | Cc1nc(Br)sc1C(=O)NCc1ccccc1 | 92 to 94 °C
22 | N#Cc1ccc(-c2ncc(C(F)(F)F)cc2Cl)cc1O | 155 to 157 °C
23 | CCCOc1ccc(C2=NN(C(=S)Nc3ccc(C(F)(F)F)cc3)CC2NCC(=O)OC)cc1 (stereo not drawn) | 167 to 169 °C
24 | Cc1cccc(Nc2nnc(Cc3ccncc3)c3ccccc23)c1 | 141 to 143 °C
25 | CC(=O)O[C@@H]1C2=C(OC(C(C)=O)=C[C@@H]2N2CCCCC2=O)SC1(C)C (relative stereo) | 180 °C
26 | O=C(Nc1ccc(CN2C(=O)[C@H]3CCC[C@H]3Nc3ccccc32)cc1)OCc1ccccc1 (relative stereo) | 162 °C
27 | Cc1cc(-c2ccc(C(F)(F)F)cn2)nc(-c2cccc(-c3cccc(S(N)(=O)=O)c3)n2)n1 | 246 to 252 °C
28 | CS(=O)(=O)c1ccc(C(CC2CCCC2)C(=O)Nc2ccc(Br)cn2)cc1[N+](=O)[O-] (stereo not drawn) | 80 to 83 °C
29 | O=C1c2ccc(Cl)cc2CC1Br (stereo not drawn) | 69 to 76 °C
30 | CN(C)C1(c2ccccc2)CCC(c2cccs2)(c2[nH]c3ccccc3c2CCc2ccncc2)CC1 (stereo not drawn) | 54 to 60 °C
31 | O=C1c2cc(O)ccc2OCN1CCO[N+](=O)[O-] | 80 °C
32 | N#Cc1cccc(-n2ncc(C(=O)O)c2C#N)c1 | 190 to 192 °C
33 | O=C(Nc1ccc(F)cc1)NC1C(=O)N(CC(=O)N2CCCC2)c2ccccc2N(C2CCCCC2)C1=O (stereo not drawn) | 181 to 183 °C
34 | c1ccc(-c2ccc(CN3Cc4cccn4Cc4ccccc43)cc2)cc1 | 135 to 137 °C
35 | CC(=O)OC(C)(N=NC(C)(OC(C)=O)C(C)C)C(C)C (stereo not drawn) | 55 to 62 °C
36 | COCCc1nc2c(N)nc3ccccc3c2n1CCCCCCCCNC(=O)Nc1ccccc1 | 136 to 142 °C
37 | Cc1cn(-c2ccc3c(c2)c2ccccc2n3-c2ccccc2)c(-c2nc(C)cn2-c2ccc3c(c2)c2ccccc2n3-c2ccccc2)n1 | 245 to 253 °C
38 | Nc1ccc2c(c1)c(=O)oc1cccc(O)c12 | > 260 °C

Row | SMILES | melting point
39 | O=C(c1ccc(O)cc1)c1c(Cc2ccccc2)oc2ccccc12 | 146 to 149 °C
40 | N#Cc1cncc(OC2SCC(O)C(O)C2O)c1 (stereo not drawn) | 149 °C
41 | CCOC(=O)C1=C(N)C(OCC)=NS1=O (stereo not drawn) | 154 to 155 °C
42 | NNC(=O)c1ccc(OCc2ccccc2)cn1 | 140 to 142 °C
43 | COC(=O)c1ccc(CBr)c(NC(=O)c2ccc(C(C)(C)C)cc2C(=O)OC(C)(C)C)c1 | 135 °C
44 | c1ccc2c(c1)nc(NC1CCCC1)c1nncn12 | 257 to 260 °C
45 | O=C1N(Cc2ccc(C(F)(F)F)o2)c2ccccc2C12COc1ccc(=O)[nH]c12 (stereo not drawn) | 175 to 177 °C
46 | O=C(O)C1=Cc2cc(Cl)c(Oc3ccc(OC(F)(F)F)cc3)cc2OC1C(F)(F)F (stereo not drawn) | 198 to 199 °C
47 | FC(F)(F)c1ccc(-c2[nH]c(=S)[nH]c2-c2ccc(C(F)(F)F)cc2)cc1 | 312 to 315 °C
48 | CC(c1ccccc1)N1CCC(CO)C1 (stereo not drawn) | 86 to 88 °C
49 | COCc1cc(C(O)CN(Cc2ccccc2)Cc2ccccc2)ccc1OCc1ccccc1 (stereo not drawn) | 52 to 57 °C
50 | CCCCOC(=O)NCC(=O)NCC1C2CCC(O2)C1CC=CCCCC(=O)O (stereo not drawn) | 104 to 106 °C
51 | Cc1onc(OCC(=O)NCCO[N+](=O)[O-])c1Br | 87 to 88 °C
52 | CCOC(=O)c1c(C(C)(C)O)nc(CC)n1Cc1ccc(-c2ccccc2-c2nnnn2C(c2ccccc2)(c2ccccc2)c2ccccc2)cc1 | 150 to 152 °C
53 | CN(C)c1cc(CC(C#N)=CNc2ccccc2)cc(N(C)C)c1Cl | 168 °C
54 | Nc1c(C(F)(F)F)cnn1-c1c(Cl)cc(C(F)(F)F)cc1Cl | 106 °C
55 | Brc1ccc(C2=NOCCS2)cc1 | 114 to 115 °C
56 | Nc1ccn(CC2CC2)c(=O)n1 | 264 to 266 °C

Further lines, results first:

Row | melting point | SMILES
57 | 142 to 144 °C | CCN1C(=O)C(CCN2CCN(c3ccccc3OC)CC2)Sc2ccccc21 (stereo not drawn)
58 | 160 to 173 °C | CCCc1c(C)c2ccc(O)cc2oc1=O
59 | 308 to 310 °C | CCCn1c(=O)c2c(NC)n[nH]c2n(Cc2ccc(Br)cc2)c1=O
60 | 146 to 147 °C | COc1ccc(C(=C/C=C/C(=O)NCCCOc2cccnc2)c2ccc(OC)cc2)cc1
61 | 66 to 67 °C | Cc1cccc(-c2nn(C)cc2-c2ccc(F)c(-c3ccc(S(C)(=O)=O)cc3)c2)n1
62 | 111 to 113 °C | COC(=O)Cc1ccc(NC(=O)c2sc3ccc(OC)cc3c2OC(C)C)cc1
63 | 183 to 184 °C | COC(=O)COc1c(Br)cc(-c2c3ccccc3c(Br)c3sc4ccccc4c23)cc1Br
64 | 180 to 182 °C | COc1cc(OC)c2c(=O)[nH]c(-c3cc(C)c(OCCN4CCN(C)CC4)c(C)c3)nc2c1
65 | 150 to 155 °C | COc1ccc(C(OCC2OC(n3cnc4c(=O)[nH]c(NC(=O)Cc5ccc(Cl)cc5)nc43)CC2O)(c2ccccc2)c2ccc(OC)cc2)cc1 (stereo not drawn)
66 | 159 to 163 °C | Cn1cc(C2=C(c3c4n(c5ccccc35)CC(NC(=O)OC(C)(C)C)CC4)C(=O)NC2=O)c2ccccc21 (stereo not drawn)
67 | 107 to 109 °C | CCCC(C(=O)N(C)C)n1cc(C)c(-c2ccco2)n1 (stereo not drawn)
68 | 118 °C | CCCCOc1ccc(S(=O)(=O)C2(C(=O)NO)CCN(C)CC2)cc1
69 | 253 to 254 °C | CCn1cc(C(=O)O)c(=O)c2cc(F)c(N3CCN(C)C(c4sc5ccccc5c4C)C3)cc21 (stereo not drawn)
70 | 126 to 128 °C | CCOC(=O)/C=C\C(=O)Oc1cccc(-c2cn3c(n2)sc2ccccc23)c1
71 | 170 to 172 °C | O=C1CCC(N2Cc3c(OCc4ccc5ncc(CN6CCOCC6)n5c4)cccc3C2=O)C(=O)N1 (stereo not drawn)
72 | 138 to 139 °C | CC(=O)NCCC1Cc2c(C)c(OCc3ccccc3)c(C)c(C)c2O1 (racemic)
73 | 286 to 288 °C | CC1(C)CCC(C)(C)c2nc3c(ccc4c(-c5ccc(C(=O)O)cc5)cn(Cc5cccnc5)c43)nc21
74 | 142 to 144 °C | CCCN(CCC)Cc1cnc(-c2ncn3c2CN(C)C(=O)c2sccc2-3)o1
75 | 120 to 121 °C | CCN1C(=O)C(C)(C)C(=O)N(C)c2cc(CN(CCn3c(=O)ccc4ccccc43)Cc3cnccc3C)ccc21

Row | melting point | SMILES
76 | 243 to 245 °C | CNC1CCN(c2nc3c(cc2F)c(=O)c(C(=O)O)cn3CCF)C1 (stereo not drawn)
77 | 160 to 161 °C | COC(=O)Cc1cc(OC)ccc1OCc1ccc(OCc2nc(-c3ccccc3)oc2C)cc1
78 | 118 to 119 °C | COC(c1cccc2nc3n(c12)CCCN3c1ccc(Cl)cc1Cl)C1CC1 (stereo not drawn)
79 | 139 to 140 °C | CSc1ccc(-c2nn(Cc3ccc(Cl)cc3Cl)c(=O)cc2-c2ccc(F)cc2)cc1
80 | 66 to 68 °C | CNc1cc(Oc2cccc(C(F)(F)F)c2)nc(C(=O)O)c1
81 | 219 to 220 °C | CC(C)(C)OC(=O)N1CCN(c2ccc3[nH]c(S)nc3c2)CC1
82 | 132 to 133 °C | CCOC(=O)c1sc(Oc2ccc(C(C)=O)c(OC)c2)c2c1CCc1cnn(C)c1-2
83 | 88 to 91 °C | Cc1ccc(Br)cc1-n1nc(-c2ccc(O)cc2O)c2ccc(O)cc21
84 | 129 to 131 °C | CN1CCN(CCO)C1=Nc1ccccc1N1CCOCC1
85 | 154 to 156 °C | CCOC(=O)C(=O)CC(=O)c1cn(Cc2ccccc2OC)c2ccccc2c1=O
86 | 119 to 120 °C | CCOc1ccc(-c2nc(-c3ccc(N4CCOCC4)c([N+](=O)[O-])c3)cs2)cc1OCC
87 | 208 °C | Cc1nc2n(c(=O)c1CCN1CCC(c3n[nH]c4cc(F)ccc34)CC1)CCS2
88 | 165 to 168 °C | CC(C)[C@H](NC(=O)OC(C)(C)C)[C@H]1CCn2c(c(C3=C(c4cn(-c5ccccc5)c5ccccc45)C(=O)NC3=O)c3ccccc32)C1
89 | 167 °C | CCN(CC)CCC(=O)OCC1CC(c2ccc(-c3ccc(N4CC(Cn5ccnn5)OC4=O)cc3F)cn2)=NO1 (stereo not drawn)
90 | 267 to 273 °C | COCCOc1cc2nncc(Oc3cc(O)c(C)cc3F)c2cc1OC
91 | 233 °C | Cc1cc(N)nc(CCc2nc3cc(-c4ccc(S(=O)(=O)N5CCCCC5)cc4)cnc3[nH]2)c1
92 | 135 to 139 °C | CCOc1ccc(-c2cc(C)cn2-c2ccc(S(N)(=O)=O)cc2)cc1
93 | 241 to 242 °C | COc1cc(Nc2cc(-c3nnc(C)o3)ccn2)cc(C(F)(F)F)c1
